Experimental data taken from the supplement of paper PMC12463676, “Small-molecule dissolution of stress granules by redox modulation benefits ALS models” (Nature Chemical Biology, 2025).

Columns and labels:
lipoamide = compound: NC(=O)CCCCC1CCSS1 [lipoamide]; experiment: thermal stability z-score vs DMSO; higher = more thermally stabilized by treatment; conditions: HeLa, lipoamide concentration 100 µM
Method: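 Cellular thermal proteome profiling in HeLa cells. Cells were treated with 100 µM lipoamide for 1 h, with or without 1 mM arsenate for a further 1 h, then heated to ten temperatures (37-66.3 °C), and soluble protein was quantified by TMT mass spectrometry relative to 0.1% DMSO controls. The thermal stability score (sum of log2 fold changes minus the abundance score) was transformed to a z-score; mean of n = 3 experiments.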

potassium arsenate = compound: O=[As]([O-])(O)O.[K+] [potassium arsenate]; experiment: as above; conditions: HeLa; arsenate concentration 1 mM
Method: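 Cellular thermal proteome profiling in HeLa cells treated with 1 mM arsenate for 1 h (DMSO pretreatment), heated to ten temperatures (37-66.3 °C). Soluble protein was quantified by TMT mass spectrometry relative to DMSO controls; the thermal stability score was transformed to a z-score; mean of n = 3 experiments.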

[1] = arsenate co-treatment: 1 mM arsenate 1 h
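Also: each temperature applied for 3 min, abundance score taken as mean log2 fold change at the two lowest temperatures, z-score obtained by mean subtraction and division by SD.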

Sequence of UniProt P21266 (P21266 whole entry): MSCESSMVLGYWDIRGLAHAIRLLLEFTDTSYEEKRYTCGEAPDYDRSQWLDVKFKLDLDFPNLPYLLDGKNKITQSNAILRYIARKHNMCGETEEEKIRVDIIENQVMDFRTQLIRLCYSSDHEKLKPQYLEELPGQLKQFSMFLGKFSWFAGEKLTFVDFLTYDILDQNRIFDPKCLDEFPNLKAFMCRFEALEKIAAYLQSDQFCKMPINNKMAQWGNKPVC
Sequence of UniProt P06396 (P06396 whole entry): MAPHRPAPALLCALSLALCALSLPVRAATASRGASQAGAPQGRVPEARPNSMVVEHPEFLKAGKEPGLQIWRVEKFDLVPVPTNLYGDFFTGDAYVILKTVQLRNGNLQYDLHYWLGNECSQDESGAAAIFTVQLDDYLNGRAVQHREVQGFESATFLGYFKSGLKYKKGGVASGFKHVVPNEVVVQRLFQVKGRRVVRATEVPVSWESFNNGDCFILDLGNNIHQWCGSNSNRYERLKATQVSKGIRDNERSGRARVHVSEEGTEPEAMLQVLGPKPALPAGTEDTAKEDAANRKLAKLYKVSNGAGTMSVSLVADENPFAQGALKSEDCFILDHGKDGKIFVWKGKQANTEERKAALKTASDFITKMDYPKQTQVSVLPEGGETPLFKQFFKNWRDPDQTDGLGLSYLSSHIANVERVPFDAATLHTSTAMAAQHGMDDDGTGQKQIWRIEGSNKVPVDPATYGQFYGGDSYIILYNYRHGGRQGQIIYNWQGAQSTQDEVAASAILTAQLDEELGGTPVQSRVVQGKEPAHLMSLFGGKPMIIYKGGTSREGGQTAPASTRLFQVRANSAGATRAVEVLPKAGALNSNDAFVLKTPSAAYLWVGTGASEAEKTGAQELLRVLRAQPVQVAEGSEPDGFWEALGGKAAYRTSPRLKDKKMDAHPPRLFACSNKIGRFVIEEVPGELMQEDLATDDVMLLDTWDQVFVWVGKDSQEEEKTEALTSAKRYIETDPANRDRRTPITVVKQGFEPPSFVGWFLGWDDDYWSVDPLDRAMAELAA
Sequence of UniProt Q12789 (Q12789 whole entry): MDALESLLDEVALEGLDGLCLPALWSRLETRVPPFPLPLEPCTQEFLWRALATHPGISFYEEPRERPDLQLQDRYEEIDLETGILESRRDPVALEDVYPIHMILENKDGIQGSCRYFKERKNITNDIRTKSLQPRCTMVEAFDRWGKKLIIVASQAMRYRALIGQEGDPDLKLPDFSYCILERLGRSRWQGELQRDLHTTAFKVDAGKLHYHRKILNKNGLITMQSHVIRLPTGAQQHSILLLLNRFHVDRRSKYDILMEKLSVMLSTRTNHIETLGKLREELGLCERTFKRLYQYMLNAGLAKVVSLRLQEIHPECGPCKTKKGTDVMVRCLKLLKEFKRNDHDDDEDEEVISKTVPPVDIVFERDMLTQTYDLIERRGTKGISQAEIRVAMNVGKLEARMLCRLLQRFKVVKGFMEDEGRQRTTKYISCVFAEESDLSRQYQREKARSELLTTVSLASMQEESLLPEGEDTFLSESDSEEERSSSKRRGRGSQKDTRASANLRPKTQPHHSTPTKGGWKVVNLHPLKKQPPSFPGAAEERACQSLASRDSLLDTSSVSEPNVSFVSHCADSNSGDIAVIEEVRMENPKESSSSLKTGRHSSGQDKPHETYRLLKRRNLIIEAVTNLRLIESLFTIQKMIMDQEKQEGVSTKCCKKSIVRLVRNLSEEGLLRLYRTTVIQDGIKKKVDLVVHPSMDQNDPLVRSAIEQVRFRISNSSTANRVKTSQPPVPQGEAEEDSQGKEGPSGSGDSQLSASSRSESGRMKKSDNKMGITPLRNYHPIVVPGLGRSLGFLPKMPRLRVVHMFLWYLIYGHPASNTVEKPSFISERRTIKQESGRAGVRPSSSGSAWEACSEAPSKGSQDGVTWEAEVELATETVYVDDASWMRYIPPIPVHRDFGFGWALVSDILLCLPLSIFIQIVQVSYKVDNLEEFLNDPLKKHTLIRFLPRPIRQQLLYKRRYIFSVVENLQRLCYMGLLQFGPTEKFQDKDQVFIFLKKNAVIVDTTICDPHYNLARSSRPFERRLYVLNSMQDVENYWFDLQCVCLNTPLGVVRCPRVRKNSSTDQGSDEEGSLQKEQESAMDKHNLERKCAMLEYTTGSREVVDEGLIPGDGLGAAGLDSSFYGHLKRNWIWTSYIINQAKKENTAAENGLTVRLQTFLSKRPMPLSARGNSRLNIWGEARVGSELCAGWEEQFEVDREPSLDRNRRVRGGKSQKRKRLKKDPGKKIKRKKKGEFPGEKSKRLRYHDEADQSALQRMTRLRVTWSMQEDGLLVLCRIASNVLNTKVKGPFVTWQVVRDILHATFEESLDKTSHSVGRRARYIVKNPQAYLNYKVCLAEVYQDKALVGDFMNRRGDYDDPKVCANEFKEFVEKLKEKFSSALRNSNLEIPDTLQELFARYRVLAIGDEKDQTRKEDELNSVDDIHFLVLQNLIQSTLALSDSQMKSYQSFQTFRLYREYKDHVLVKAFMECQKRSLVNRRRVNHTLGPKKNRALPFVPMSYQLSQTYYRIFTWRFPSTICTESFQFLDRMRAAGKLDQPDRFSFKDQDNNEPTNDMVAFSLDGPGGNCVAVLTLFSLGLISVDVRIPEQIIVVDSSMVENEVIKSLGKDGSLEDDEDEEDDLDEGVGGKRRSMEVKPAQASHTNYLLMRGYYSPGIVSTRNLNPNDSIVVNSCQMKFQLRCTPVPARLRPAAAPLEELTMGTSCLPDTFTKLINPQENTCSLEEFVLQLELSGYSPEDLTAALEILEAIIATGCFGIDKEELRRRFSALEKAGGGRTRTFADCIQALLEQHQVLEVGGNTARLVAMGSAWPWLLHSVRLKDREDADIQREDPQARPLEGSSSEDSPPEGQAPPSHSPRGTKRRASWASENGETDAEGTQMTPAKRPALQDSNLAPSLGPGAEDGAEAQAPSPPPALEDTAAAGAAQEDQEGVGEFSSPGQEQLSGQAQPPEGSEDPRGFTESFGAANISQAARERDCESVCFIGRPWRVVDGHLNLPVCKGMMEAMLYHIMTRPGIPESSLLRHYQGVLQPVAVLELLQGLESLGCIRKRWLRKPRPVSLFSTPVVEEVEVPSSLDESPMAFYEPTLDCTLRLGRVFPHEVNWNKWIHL
Sequence of UniProt P49840 (P49840 whole entry, looked up): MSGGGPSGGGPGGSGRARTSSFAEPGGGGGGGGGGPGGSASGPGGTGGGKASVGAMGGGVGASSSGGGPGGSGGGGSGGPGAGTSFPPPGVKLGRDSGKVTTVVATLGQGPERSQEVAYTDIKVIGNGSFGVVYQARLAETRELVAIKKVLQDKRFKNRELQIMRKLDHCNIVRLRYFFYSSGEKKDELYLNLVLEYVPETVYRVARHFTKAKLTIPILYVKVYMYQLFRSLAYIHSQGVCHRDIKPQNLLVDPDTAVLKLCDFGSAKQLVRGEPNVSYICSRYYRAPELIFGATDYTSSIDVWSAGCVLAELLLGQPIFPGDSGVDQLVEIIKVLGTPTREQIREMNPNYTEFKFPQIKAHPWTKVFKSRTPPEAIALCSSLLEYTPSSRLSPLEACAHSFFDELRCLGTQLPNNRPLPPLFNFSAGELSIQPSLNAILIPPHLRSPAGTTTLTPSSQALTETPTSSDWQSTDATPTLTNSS
Sequence of UniProt Q8IYD1 (Q8IYD1 whole entry): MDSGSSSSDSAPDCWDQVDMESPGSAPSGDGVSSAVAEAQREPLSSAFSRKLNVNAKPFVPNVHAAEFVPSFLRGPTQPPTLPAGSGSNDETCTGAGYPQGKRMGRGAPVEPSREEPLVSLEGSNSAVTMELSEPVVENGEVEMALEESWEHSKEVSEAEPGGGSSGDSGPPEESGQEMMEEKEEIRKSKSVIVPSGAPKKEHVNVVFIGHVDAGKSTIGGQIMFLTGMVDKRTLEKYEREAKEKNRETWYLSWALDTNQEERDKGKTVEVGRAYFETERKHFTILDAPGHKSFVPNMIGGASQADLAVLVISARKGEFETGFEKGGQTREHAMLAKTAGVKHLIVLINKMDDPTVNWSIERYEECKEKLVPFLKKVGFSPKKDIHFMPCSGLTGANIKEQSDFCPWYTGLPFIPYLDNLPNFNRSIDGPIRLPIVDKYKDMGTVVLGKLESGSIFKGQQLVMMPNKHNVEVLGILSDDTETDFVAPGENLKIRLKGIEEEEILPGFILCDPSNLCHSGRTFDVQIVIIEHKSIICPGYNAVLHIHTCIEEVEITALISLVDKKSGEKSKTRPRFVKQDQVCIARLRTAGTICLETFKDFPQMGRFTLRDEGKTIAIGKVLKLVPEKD
Sequence of UniProt O00178 (O00178 whole entry): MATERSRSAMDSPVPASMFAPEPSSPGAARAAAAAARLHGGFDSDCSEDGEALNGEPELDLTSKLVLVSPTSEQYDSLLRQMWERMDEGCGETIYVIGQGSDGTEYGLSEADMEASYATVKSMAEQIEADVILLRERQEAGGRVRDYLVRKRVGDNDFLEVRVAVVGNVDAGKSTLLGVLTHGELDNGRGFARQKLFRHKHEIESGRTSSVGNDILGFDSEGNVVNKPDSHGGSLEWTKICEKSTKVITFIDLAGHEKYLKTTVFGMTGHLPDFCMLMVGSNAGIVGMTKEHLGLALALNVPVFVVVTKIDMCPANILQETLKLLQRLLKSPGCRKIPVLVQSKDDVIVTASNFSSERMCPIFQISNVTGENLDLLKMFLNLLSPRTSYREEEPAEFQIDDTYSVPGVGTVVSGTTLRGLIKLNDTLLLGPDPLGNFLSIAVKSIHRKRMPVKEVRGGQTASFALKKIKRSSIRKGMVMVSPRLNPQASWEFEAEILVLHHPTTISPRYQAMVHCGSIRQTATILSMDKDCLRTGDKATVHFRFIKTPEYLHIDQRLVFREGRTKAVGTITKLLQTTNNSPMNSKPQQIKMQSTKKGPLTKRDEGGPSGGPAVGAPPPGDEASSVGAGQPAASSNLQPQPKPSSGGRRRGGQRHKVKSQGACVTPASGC
Sequence of UniProt P52657 (P52657 whole entry): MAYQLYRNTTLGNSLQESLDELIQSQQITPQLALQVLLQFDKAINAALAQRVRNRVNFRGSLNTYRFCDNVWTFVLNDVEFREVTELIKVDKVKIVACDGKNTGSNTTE

Target	thermal stability z-score (lipoamide; [1])	thermal stability z-score (lipoamide; arsenate co-treatment: none)	thermal stability z-score (potassium arsenate)
GSE1 (UniProt Q14687)	0.0903	0.0397	-0.12
GSK3A (UniProt P49840)	-0.401	-0.28	-0.881
GSK3B (UniProt P49841)	-0.109	-0.308	0.326
GSN (UniProt P06396)	0.0431	-0.257	0.0381
GSPT1 (UniProt P15170)	-0.00711	0.472	0.226
GSPT2 (UniProt Q8IYD1)	-0.0489	-0.153	-0.621
GSR (UniProt P00390)	0.558	0.347	-0.106
GSS (UniProt P48637)	-0.2	-0.141	-0.183
GSTCD (UniProt Q8NEC7)	0.682	0.492	-0.0694
GSTK1 (UniProt Q9Y2Q3)	-0.0293	0.351	-0.0332
GSTM3 (UniProt P21266)	0.731	0.402	1.48
GSTO1 (UniProt P78417)	3	2.41	0.362
GSTT1 (UniProt P30711)	1.07	0.0783	-0.279
GSTT2|GSTT2B|EM	0.517	0.277	-0.23
GSTZ1 (UniProt O43708)	-0.243	0.0552	0.239
GTF2A1 (UniProt P52655)	1.26	1.56	1.02
GTF2A2 (UniProt P52657)	-0.322	-0.782	-0.823
GTF2B (UniProt Q00403)	-0.0775	0.338	-1.93

Target	thermal stability z-score (lipoamide; [1])	thermal stability z-score (lipoamide; arsenate co-treatment: none)	thermal stability z-score (potassium arsenate)
GTF2E1 (UniProt P29083)	-0.0787	0.126	0.733
GTF2E2 (UniProt P29084)	-0.693	-0.556	0.0275
GTF2F1 (UniProt P35269)	-0.208	-0.0526	-0.307
GTF2F2 (UniProt P13984)	0.00925	-0.239	-0.198
GTF2H1 (UniProt P32780)	-0.0618	-0.0128	-0.0702
GTF2H2|GTF2H2C	0.00796	-0.0811	-0.166
GTF2H3 (UniProt Q13889)	0.0675	-0.229	-0.106
GTF2H4 (UniProt Q92759)	0.108	0.112	0.148
GTF2I (UniProt P78347)	-0.117	0.0929	-0.472
GTF3A (UniProt Q92664)	-0.654	-0.754	-1.35
GTF3C1 (UniProt Q12789)	0.0666	-0.0357	-0.534
GTF3C2 (UniProt Q8WUA4)	0.112	0.0176	-0.411
GTF3C3 (UniProt Q9Y5Q9)	-0.0672	0.0153	-0.461
GTF3C4 (UniProt Q9UKN8)	0.237	0.0733	-1.21
GTF3C5 (UniProt Q9Y5Q8)	0.0669	0.0127	-0.367
GTF3C6 (UniProt Q969F1)	0.05	-0.0491	-0.175
GTPBP1 (UniProt O00178)	-0.325	-0.107	0.493
GTPBP2 (UniProt Q9BX10)	0.122	0.0371	0.0134
